From patent publication US6500815B1, “Substituted 11.beta steroid derivatives, method for preparing same and intermediates of said method, use as medicine and compositions containing them” (Aventis Pharma S.A., priority 1999, dated 2002)

What follows are compounds tested against αvβ3 human receptor (vitronectin receptor) (Homo sapiens, UniProt P05106+P06756) (assay: Competition binding test: displacement of the vitronectin/vitronectin receptor (αvβ3) bond). Details: human vitronectin coated at 2 μg/ml, 3 hours incubation at ambient temperature, 4B12-HRP antibody detection, OD 450 nm, read-out: Competition binding test Vn/VnR (αvβ3) IC50.
Protocol: 1—Study by the Products of the Invention of the Bond Displacement: Vitronectin/Vitronectin Receptor (αvβ3) Protocol 96 well MaxiSorp plates are coated overnight at 4° C., with 100 μl of human vitronectin (cf Yatohgo et al. Cell., Structure and fraction 13: 281-292 (1988) at 2 μg/ml, (dilution in coating buffer).
The following day, the wells are emptied and the ligands (vitronectin) are then fixed (see fixation buffer) for 1 hour at ambient temperature under gentle agitation. The wells are washed six times (see washing buffer), then per well and in this order the following are added:
40 μl of incubation buffer, 10 μl of the diluted product to be tested, (the products are diluted in a 50/50 mixture of DMSO-H2O) 20 μl of αvβ3 human receptor (cf Pytela et al. Methods Enzymol (1987) 144:475) (dilution in incubation buffer, to be adapted according to the batch of receptor and according to the ligand).
The ligand, the αvβ3 human receptor and the products to be studied are incubated for 3 hours at ambient temperature under gentle agitation.
The wells are again washed six times, then incubated for 2 hours at ambient temperature under gentle agitation, in the presence of 100 μl of 4B12-HRP antibody, anti-receptor coupled to a peroxydase (the 4B12-HRP antibody is diluted in incubation buffer. The dilution is to be adapted according to the batch of receptor).
The wells are then washed six times before measurement of the ligand-receptor bond done by the intermediate of a peroxydase visualizing kit (TMP Microwell Peroxydase Substrate System Kirkegaard: Ref. cat. 50-76-00). This kit contains a flask A of substrate (3,3′,5,5′-tetra-methylbenzidine at 0.4 g/l) and a flask B (H2O2 at 0.02% in Citrate/Citric acid buffer). Extemporaneously, a volume of A is mixed with a volume of B, then the reaction mixture is distributed at a rate of 100 μl/wells. The enzymatic reaction develops in 12′ for Vitronectin/αvβ3, and then its evolution is stopped by the addition of 100 μl of 1M phosphoric acid.
The optical density is measured at 450 nm. […]
coating buffer: 0.05 M carbonate, NaOH pH 9.6 fixation buffer: PBS containing 0.5% of BSA (pH 7.4) washing buffer: PBS containing 0.05% of Tween 20 (pH 7.4)
Expression of the Results: the following curve is drawn: the bonding percentage of human vitronectin as a function of the logarithm of the concentration of each product tested. For each product the IC50 is determined according to the following formula:
BO=Maximum bond in the absence of any product
Bmin=Minimum bond in the presence of the highest concentration of the product.

| SMILES | IC50 |
| --- | --- |
| C[C@]12C[C@H](CCCCCC(=O)O)C3=C4CCC(=NNC(=N)N)C(Cl)=C4CC[C@H]3[C@@H]1CCC2=O [Example 9, 3-[(Aminoiminomethyl)hydrazono]-4-chloro-17-oxo-estra-4,9-diene-11-beta-hexanoic Acid] | 1950 nM |
| C[C@]12C[C@H](CCCCCC(=O)O)C3=C4CCC(=NNC5=NCCCN5)C=C4CC[C@H]3[C@@H]1CCC2=O (mixture of isomers) [Example 6b 60/40, 3-[(1,4,5,6-Tetrahydro-2-pyrimidinyl)-hydrazono]-17-oxo-4,9-diene-11-beta-hexanoic Acid] | 38 nM |
| C[C@]12C[C@H](CCCCCC(=O)O)C3=C4CC/C(=N\NC(=N)N)C=C4CC[C@H]3[C@@H]1CCC2=O [Example 5a ΔE, 3-[(Amino-iminomethyl)hydrazono]-17-oxo-estra-4,9-diene-11-beta-hexanoic Acid] | 54 nM |
| CC12CC(CCCCC(NC(=O)OCc3ccccc3)C(=O)O)C3=C4CCC(=NNC5=NCCN5)C=C4CCC3C1CCC2O (stereo not drawn) [Example 3, 3-[(4,5-Dihydro-1H-imidazol-2-yl)hydrazono]-17-hydroxy-alpha.-[[(phenylmethoxy)carbonyl]amino]-estra-4,9-diene-11-beta-hexanoic Acid] | 70 nM |
| C[C@]12C[C@H](CCCCCC(=O)O)C3=C4CCC(=NNC5=NCCN5)C=C4CC[C@H]3[C@@H]1CCC2=O (mixture of isomers) [Example 7, 3-[(4,5-Dihydro-1H-imidazol-2-yl)-hydrazono]-17-oxo-estra-4,9-diene-11-beta-hexanoic Acid] | 25 nM |
| C[C@]12C[C@H](CCCCCC(=O)O)C3=C4CCC(=NNC5=NCCCN5)C=C4CC[C@H]3[C@@H]1CCC2=O (mixture of isomers) [Example 6a 90/10, 3-[(1,4,5,6-Tetrahydro-2-pyrimidinyl)-hydrazono]-17-oxo-4,9-diene-11-beta-hexanoic Acid] | 20 nM |
| C[C@]12C[C@H](CCCCCC(=O)O)C3=C4CCC(=NNC5=NCCN5)C(Cl)=C4CC[C@H]3[C@@H]1CCC2=O [Example 8, 4-Chloro-3-[(4,5-dihydro-1H-imidazol-2-yl)hydrazono]-17-oxo-estra-4,9-diene-11-beta-hexanoic Acid] | 17 nM |
| C[C@]12C[C@H](CCCCC(=O)O)C3=C4CCC(=NNC(=N)N)C=C4CC[C@H]3[C@@H]1CCC2=O (mixture of isomers) [Example 4, 3-[(Amino-iminomethyl)hydrazono]-17-oxoestra-4,9-dien-11-beta-pentanoic Acid] | 133 nM |
| C[C@]12C[C@H](CCCCCC(=O)O)C3=C4CC/C(=N/NC(=N)N)C=C4CC[C@H]3[C@@H]1CCC2=O [Example 5b ΔZ, 3-[(Amino-iminomethyl)hydrazono]-17-oxo-estra-4,9-diene-11-beta-hexanoic Acid] | 375 nM |
| C[C@]12C[C@H](CCCCC(NC(=O)OCc3ccccc3)C(=O)O)C3=C4CCC(=NNC5=NCCN5)C=C4CC[C@H]3[C@@H]1CCC2=O (mixture of isomers) [Example 2, 3-[(4,5-Dihydro-1H-imidazol-2-yl)hydrazono]-17-oxo-α-[[(phenylmethoxy)carbonyl]amino]-estra-4,9-diene-11-beta-hexanoic Acid] | 30 nM |
